In assay [1] the target is recombinant human Mcl-1 (residues 171-327) / Bim interaction (Homo sapiens (Human), UniProt Q07820). Nature of the assay: biochemical. It is filed as binding. The conditions noted are these: read-out: Mcl-1 HTRF IC50.
In assay [2] the test system is human multiple myeloma cell line, OPM-2. Nature of the assay: Cell viability assay (OPM-2 10 FBS), CellTiter-Glo. It is filed as cell-based. The gist of the method: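 OPM-2 cells at 3000 cells/well in RPMI 1640 with 10% FBS were exposed to serially diluted compounds for 16 h at 37 °C, 5% CO2.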
[3] abbreviates: TR-FRET, Mcl-1(171-327) / biotin-Bim (51-76).
Where [4] appears, read: read-out: OPM-2 10% FBS IC50 IP, OPM-2 cells, 10% FBS, 16 h, CellTiter-Glo.
The mark [5] stands for this setting: Homo sapiens, OPM-2, 16 h, read-out: OPM-2 10% FBS IC50 IP, OPM-2 cells, 10% FBS, 16 h, CellTiter-Glo.
The mark [6] stands for this setting: 0.1 nM Mcl-1(171-327), 0.05 nM biotin-Bim (51-76).
Where [7] appears, read: Homo sapiens, OPM-2, 16 h, read-out: OPM-2 10% FBS IC50 IP, OPM-2 cells, 10% FBS, 16 h incubation.

Where two headings read alike, the source gives them in different places.

Chain of recombinant human Mcl-1 (residues 171-327) / Bim interaction (Q07820 171-327): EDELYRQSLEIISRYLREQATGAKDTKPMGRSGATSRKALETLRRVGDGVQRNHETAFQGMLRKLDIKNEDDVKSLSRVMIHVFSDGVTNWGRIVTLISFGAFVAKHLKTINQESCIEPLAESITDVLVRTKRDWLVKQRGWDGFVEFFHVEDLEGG

Regarding `CN[C@@H]1C[C@H](C)[C@@H](C)S(=O)(=O)NC(=O)c2ccc3c(c2)N(C[C@@H]2CC[C@H]2[C@@](C)(O)C1)C[C@@]1(CCCc2cc(Cl)ccc21)CO3` [Example 100065, (1S,3′R,6′R,7′S,9′R,11′S,12′R)-6-chloro-7′-hydroxy-7′,11′,12′-trimethyl-9′-(methylamino)-3,4-dihydro-2H,15′H-spiro[naphthalene-1,22′-[20]oxa[13]thia[1,14]diazatetracyclo [14.7.2.0~3,6~.0~19,24~]pentacosa[16,18,24]trien]-15′-one 13′,13′-dioxide], the values for the IC50 in assay [1] (setting [3]) and in assay [2] (setting [4]) were 4.85 nM and 7390 nM, respectively.

With `C[C@@H]1[C@@H](C)CCC[C@@](O)(Cc2nccn2C)[C@@H]2CC[C@H]2CN2C[C@@]3(CCCc4cc(Cl)ccc43)COc3ccc(cc32)C(=O)NS1(=O)=O` [Example 100163, (1S,3′R,6′R,7′R,11′S,12′R)-6-chloro-7′-hydroxy-11′,12′-dimethyl-7′-((1-methyl-1H-imidazol-2-yl)methyl)-3,4-dihydro-2H,15′H-spiro[naphthalene-1,22′-[20]oxa[13]thia[1,14]diazatetracyclo [14.7.2.0~3,6~.0~19,24~]pentacosa[16,18,24]trien]-15′-one 13′,13′-dioxide], the figures for the IC50 in assay [1] (setting [3]) and in assay [2] (setting [4]) were 2.79 nM and 1000 nM, respectively.

Turning to `CO[C@@]1(c2nccs2)/C=C/C[C@H](C)[C@@H](C)S(=O)(=O)NC(=O)c2ccc3c(c2)N(C[C@@H]2CC[C@H]21)C[C@@]1(CCCc2cc(Cl)ccc21)CO3` (single isomer, unassigned) [Example 100497], the IC50 in assay [1] (setting [3]) worked out at 0.064 nM; in assay [2] (setting [5]), 106 nM.

For the compound `CO[C@H](C)[C@]1(OC)/C=C/C[C@H](C)[C@@H](C)S(=O)(=O)NC(=O)c2ccc3c(c2)N(C[C@@H]2CC[C@H]21)C[C@@]1(CCCc2cc(Cl)ccc21)CO3` [Example 100475, (1S,3′R,6′R,7′S,8′E,11′S,12′R)-6-chloro-7′-methoxy-7′-((1R)-1-methoxyethyl)-11′,12′-dimethyl-3,4-dihydro-2H,15′H-spiro[naphthalene-1,22′-[20]oxa[13]thia[1,14]diazatetracyclo [14.7.2.0~3,6~.0~19,24~]pentacosa[8,16,18,24]tetraen]-15′-one 13′,13′-dioxide], the IC50 in assay [1] (setting [3]) was 1.36 nM; in assay [2] (setting [4]) it was 2710 nM.

In the case of `CO[C@@]1(CN2CCCCC2)/C=C/C[C@H](C)[C@@H](C)S(=O)(=O)NC(=O)c2ccc3c(c2)N(C[C@@H]2CC[C@H]21)C[C@@]1(CCCc2cc(Cl)ccc21)CO3` [Example 75, (1S,3′R,6′R,7′S,8′E,11′S,12′R)-6-chloro-7′-methoxy-11′,12′-dimethyl-7′-(1-piperidinylmethyl)-3,4-dihydro-2H,15′H-spiro[naphthalene-1,22′-[20]oxa[13]thia[1,14]diazatetracyclo [14.7.2.0~3,6~.0~19,24~]pentacosa[8,16,18,24]tetraen]-15′-one 13′,13′-dioxide], the IC50 in assay [1] (setting [6]) was 2.05 nM; in assay [2] (setting [7]), 1610 nM.

As for `CO[C@@]1(CN(C)CCN2CCOCC2)/C=C/C[C@H](C)[C@@H](C)S(=O)(=O)NC(=O)c2ccc3c(c2)N(C[C@@H]2CC[C@H]21)C[C@@]1(CCCc2cc(Cl)ccc21)CO3` [Example 35, (1S,3′R,6′R,7′S,8′E,11′S,12′R)-6-chloro-7′-methoxy-11′,12′-dimethyl-7′-((methyl(2-(4-morpholinyl)ethyl)amino)methyl)-3,4-dihydro-2H,15′H-spiro[naphthalene-1,22′-[20]oxa[13]thia[1,14]diazatetracyclo [14.7.2.0~3,6~.0~19,24~]pentacosa[8,16,18,24]tetraen]-15′-one 13′,13′-dioxide], the IC50 in assay [1] (setting [6]) was found to be 0.218 nM; in assay [2] (setting [7]) it was 235 nM.

Consider `CCC(=O)C[C@]1(OC)/C=C/C[C@H](C)[C@@H](C)S(=O)(=O)NC(=O)c2ccc3c(c2)N(C[C@@H]2CC[C@H]21)C[C@@]1(CCCc2cc(Cl)ccc21)CO3` [Example 100457, (1S,3′R,6′R,7′S,8′E,11′S,12′R)-6-chloro-7′-methoxy-11′,12′-dimethyl-7′-(2-oxobutyl)-3,4-dihydro-2H,15′H-spiro[naphthalene-1,22′-[20]oxa[13]thia[1,14]diazatetracyclo [14.7.2.0~3,6~.0~19,24~]pentacosa[8,16,18,24]tetraen]-15′-one 13′,13′-dioxide], for which the IC50 in assay [1] (setting [3]) amounted to 0.331 nM; in assay [2] (setting [5]), 967 nM.

For `COCC[C@@H]1[C@@H](C)C/C=C/[C@](CN2CCN(Cc3noc(C)n3)CC2)(OC)[C@@H]2CC[C@H]2CN2C[C@@]3(CCCc4cc(Cl)ccc43)COc3ccc(nc32)C(=O)NS1(=O)=O` [Example 26, (1S,3′R,6′R,7′S,8′E,11′S,12′R)-6-chloro-7′-methoxy-12′-(2-methoxyethyl)-11′-methyl-7′-((4-((5-methyl-1,2,4-oxadiazol-3-yl)methyl)-1-piperazinyl)methyl)-3,4-dihydro-2H,15′H-spiro[naphthalene-1,22′-[20]oxa[13]thia[1,14,25]triazatetracyclo [14.7.2.0~3,6~.0~19,24~]pentacosa[8,16,18,24]tetraen]-15′-one 13′,13′-dioxide], the IC50 in assay [1] (setting [6]) stood at 0.079 nM; in assay [2] (setting [7]) it was 32 nM.

As for `CO[C@@]1(CC(=O)NCCCl)/C=C/C[C@H](C)[C@@H](C)S(=O)(=O)NC(=O)c2ccc3c(c2)N(C[C@@H]2CC[C@H]21)C[C@@]1(CCCc2cc(Cl)ccc21)CO3` [Example 100509, N-(2-chloroethyl)-2-((1S,3′R,6′R,7′S,8′E,11′S,12′R)-6-chloro-7′-methoxy-11′,12′-dimethyl-13′,13′-dioxido-15′-oxo-3,4-dihydro-2H-spiro[naphthalene-1,22′-[20]oxa[13]thia[1,14]diazatetracyclo [14.7.2.0~3,6~.0~19,24~]pentacosa[8,16,18,24]tetraen]-7′-yl)acetamide], the IC50 was determined as 0.057 nM in assay [1] (setting [3]) and 361 nM in assay [2] (setting [5]).

With `CO[C@@]1(CN2CCc3ncncc3C2)/C=C/C[C@H](C)[C@@H](C)S(=O)(=O)NC(=O)c2ccc3c(c2)N(C[C@@H]2CC[C@H]21)C[C@@]1(CCCc2cc(Cl)ccc21)CO3` [Example 223, (1S,3′R,6′R,7′S,8′E,11′S,12′R)-6-chloro-7′-(7,8-dihydropyrido[4,3-d]pyrimidin-6(5H)-ylmethyl)-7′-methoxy-11′,12′-dimethyl-3,4-dihydro-2H,15′H-spiro[naphthalene-1,22′-[20]oxa[13]thia[1,14]diazatetracyclo [14.7.2.0~3,6~.0~19,24~]pentacosa[8,16,18,24]tetraen]-15′-one 13′,13′-dioxide], the figures for the IC50 in assay [1] (setting [6]) and in assay [2] (setting [7]) were 0.251 nM and 258 nM, respectively.

For the compound `CO[C@@]1(CN2CCN3CCOC[C@@H]3C2)/C=C/C[C@H](C)[C@@H](Cc2ccccc2)S(=O)(=O)NC(=O)c2ccc3c(c2)N(C[C@@H]2CC[C@H]21)C[C@@]1(CCCc2cc(Cl)ccc21)CO3` (single isomer, unassigned) [Example 102], the IC50 was determined as 0.182 nM in assay [1] (setting [6]) and 416 nM in assay [2] (read-out: OPM-2 10% FBS IC50 IP, OPM-2 cells, 10% FBS, 16 h incubation).

On to `C[C@@H]1[C@@H](C)C/C=C/[C@@](O)(c2cncnc2)[C@@H]2CC[C@H]2CN2C[C@@]3(CCCc4cc(Cl)ccc43)COc3ccc(cc32)C(=O)NS1(=O)=O` (single isomer, unassigned) [Example 100434], for which the IC50 in assay [1] (setting [3]) came to 0.162 nM; in assay [2] (setting [5]), 482 nM.

Consider `C[C@@H]1[C@@H](C)CCC[C@@](O)(Cc2nccs2)[C@@H]2CC[C@H]2CN2C[C@@]3(CCCc4cc(Cl)ccc43)COc3ccc(cc32)C(=O)NS1(=O)=O` (single isomer, unassigned) [Example 100250], for which the IC50 in assay [1] (setting [3]) was 0.136 nM; in assay [2] (setting [4]), 82 nM.

Turning to `C[C@@H]1[C@@H](C)C/C=C/[C@@](O)(c2cnccn2)[C@@H]2CC[C@H]2CN2C[C@@]3(CCCc4cc(Cl)ccc43)COc3ccc(cc32)C(=O)NS1(=O)=O` [Example 100357, (1S,3′R,6′R,7′S,8′E,11′S,12′R)-6-chloro-7′-hydroxy-11′,12′-dimethyl-7′-(2-pyrazinyl)-3,4-dihydro-2H,15′H-spiro[naphthalene-1,22′-[20]oxa[13]thia[1,14]diazatetracyclo [14.7.2.0~3,6~.0~19,24~]pentacosa[8,16,18,24]tetraen]-15′-one 13′,13′-dioxide], the IC50 in assay [1] (setting [3]) was 0.224 nM; in assay [2] (setting [5]) it was 399 nM.

As for `C[C@@H]1[C@@H](C)C/C=C/[C@@](O)(c2cccnc2)[C@@H]2CC[C@H]2CN2C[C@@]3(CCCc4cc(Cl)ccc43)COc3ccc(cc32)C(=O)NS1(=O)=O` [Example 100384, (1S,3′R,6′R,7′S,8′E,11′S,12′R)-6-chloro-7′-hydroxy-11′,12′-dimethyl-7′-(3-pyridinyl)-3,4-dihydro-2H,15′H-spiro[naphthalene-1,22′-[20]oxa[13]thia[1,14]diazatetracyclo [14.7.2.0~3,6~.0~19,24~]pentacosa[8,16,18,24]tetraen]-15′-one 13′,13′-dioxide], the values for the IC50 in assay [1] (setting [3]) and in assay [2] (setting [5]) were 0.821 nM and 729 nM, respectively.

For `CO[C@@]1(Cc2nccs2)/C=C/C[C@H](C)[C@@H](C)S(=O)(=O)NC(=O)c2ccc3c(c2)N(C[C@@H]2CC[C@H]21)C[C@@]1(CCCc2cc(Cl)ccc21)CO3` [Example 100525, (1S,3′R,6′R,7′S,8′E,11′S,12′R)-6-chloro-7′-methoxy-11′,12′-dimethyl-7′-(1,3-thiazol-2-ylmethyl)-3,4-dihydro-2H,15′H-spiro[naphthalene-1,22′-[20]oxa[13]thia[1,14]diazatetracyclo [14.7.2.0~3,6~.0~19,24~]pentacosa[8,16,18,24]tetraen]-15′-one 13′,13′-dioxide], the results for the IC50 in assay [1] (setting [3]) and in assay [2] (setting [5]) were 3.31 nM and 1430 nM, respectively.
